Experimental data: publication PMC12549899 (Nature Communications, 2025)
Changes are numbered by the printed parent chain. Values joined by “and” are separate entries in the source; they are usually repeats but may differ in a detail not shown here. Equal values may be shown once.

Tests used:
[1] = target: T1, DrOTOP1 L205W (Danio rerio, UniProt Q7ZWK8, L205W); test: Whole-cell patch-clamp, inhibition of acid-evoked currents, DrOTOP1 L205W; assay type: cell-based, zebrafish (Danio rerio); conditions: single cells or mean; for Inhibition of currents: 10 µM
T1 construct: A previously generated codon-optimized full-length DrOTOP1[8]; (UniProt: Q7ZWK8) construct; expressed in transfected cells; host or cells: HEK-293 (CRL-1573, ATCC)
T1 sequence (Q7ZWK8 1-586 L205W): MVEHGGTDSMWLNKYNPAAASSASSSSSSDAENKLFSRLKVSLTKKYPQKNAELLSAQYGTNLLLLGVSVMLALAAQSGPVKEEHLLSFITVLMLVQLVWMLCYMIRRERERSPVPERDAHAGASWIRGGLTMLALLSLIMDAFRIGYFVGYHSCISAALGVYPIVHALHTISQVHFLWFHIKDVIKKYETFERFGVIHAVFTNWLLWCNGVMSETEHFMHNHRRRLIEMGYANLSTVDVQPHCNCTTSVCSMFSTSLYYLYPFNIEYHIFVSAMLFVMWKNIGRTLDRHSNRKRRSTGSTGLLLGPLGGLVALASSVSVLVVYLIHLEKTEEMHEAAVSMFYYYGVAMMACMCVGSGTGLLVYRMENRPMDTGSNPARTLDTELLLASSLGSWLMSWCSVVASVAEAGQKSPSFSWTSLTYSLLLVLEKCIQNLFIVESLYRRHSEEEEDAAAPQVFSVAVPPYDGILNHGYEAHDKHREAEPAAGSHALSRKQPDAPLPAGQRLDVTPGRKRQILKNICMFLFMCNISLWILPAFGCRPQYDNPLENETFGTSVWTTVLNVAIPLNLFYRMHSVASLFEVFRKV
Excerpt: (§1) To functionally test the significance of the two binding sites identified by cryo-EM, we generated point mutations of DrOTOP1 using the binding poses and conformational changes observed in DrOTOP1_C2.2 to guide our mutations. As per the binding pose that best fits our cryo-EM density, C2.2 forms the following interactions in the outer site: hydrophobic packing against many non-polar residues W126, G130, M133, L134, F271, F570, and M573, and π-stacking with W532 (Fig. 5A). In addition, C2.2 could potentially form H-bonds with E267, if the sidechain is protonated or a water bridge is present, and with H574 if it moves closer (Fig. 5A). Likewise, C2.36 presents a heterocyclic nitrogen that can potentially form a H-bond with E267, similarly, provided a protonation or water bridge is present (Fig. 5B). In addition, C2.36 forms a T-shaped π-stacking interaction with H574, whose sidechain has rotated 90 degrees (compared to DrOTOP1_apo), presumably to accommodate the interaction (Fig. 5B). Considering other inhibitors discovered from the second round of screening, many contain functional groups like the carbonyl groups of Group 1 molecules and the heterocyclic nitrogen atoms of Group 2 molecules (Supplementary Fig. 3E), that can potentially form similar H-bonds with E267 as C2.2 and C2.36, assuming the binding modes are similar. In the central site, C2.2 binds with the following interactions: hydrophobic packing with residues V201, F271, A274, V278, and A388, π-stacking with F277, and H-bonding with E384 (Fig. 5C).
We next tested mutations of the central site (L205W, A274W, F277A, E384A L385W, A388W). V201W and S389W, two additional central site mutations, were excluded from the study due to complete loss of channel activity. […]
(§2) Whole-cell patch-clamp recording was performed as previously described[6],[22],[25]. Recordings were made with an Axopatch 200B amplifier, digitized with a Digidata 1322a 16-bit data acquisition system, acquired with pClamp 8.2 and analyzed with Clampfit 10 (Molecular Devices). […]

[2] = target: T2, DrOTOP1 A388W (Danio rerio, UniProt Q7ZWK8, A388W); test: Whole-cell patch-clamp, inhibition of acid-evoked currents, DrOTOP1 A388W; assay type: cell-based, zebrafish (Danio rerio); conditions: single cells
T2 construct: A previously generated codon-optimized full-length DrOTOP1[8]; (UniProt: Q7ZWK8) construct; expressed in transfected cells; host or cells: HEK-293 (CRL-1573, ATCC)
T2 sequence (Q7ZWK8 1-586 A388W): T1 sequence (Q7ZWK8 1-586 L205W) with W205L, A388W
Excerpt: as §1, with “Considering other inhibitors discovered from the second round of screening, many contain functional groups like the carbonyl groups of Group 1 molecules and the heterocyclic nitrogen atoms of Group 2 molecules (Supplementary Fig. 3E), that can potentially form similar H-bonds with E267 as C2.2 and C2.36, assuming the binding modes are similar. In the central site, C2.2 binds with the following interactions: hydrophobic packing with residues V201, F271, A274, V278, and A388, π-stacking with F277, and H-bonding with E384 (Fig. 5C).” left out
as §2

## C=C(C)COc1ccccc1NC(=O)c1nc[nH]c1C [C2.2]
[1]; mean
  Inhibition of currents: 69.03%
[1]; single cells
  Inhibition of currents: 76.6896% and 67.1049% and 68.1116% and 69.0311%
[1]
  inhibition at 10 µM: 64.2%

## O=C(/C(=N\O)c1ccccc1)c1ccccc1 [C11, benzil monoxime]
[2]; 100 µM
  Inhibition of currents: 53.4353% and 72.6918% and 53.0458% and 57.2816% and 61.0959%
[2]
  inhibition at 100 µM: 72.4%
